Converted amounts (≈) assume the structure as drawn. Read-outs that look alike come from different tables or passages of the source.
Key:
Assay type in all cases: cell-based
[1] = tested on: SaR3: Meticillin-Resistant Staphylococcus aureus; experiment: Antibiogram by the disk diffusion technique; conditions: for Diameter: Table E1; for Results: Table E1, against Dmin Dmax; for diameter in mm: Table E2
Description: (§1) The bacterial and antibiogramidentification is carried out by the VITEK 2 system (bioMérieux) and by the disk diffusion technique

[2] = tested on: SaR4: Meticillin-Resistant Staphylococcus aureus; experiment: Antibiogram, MIC by the VITEK 2 system; conditions: SaR4
Description: as §1

[3] = tested on: SaR1: Meticillin-Resistant Staphylococcus aureus without Associated Resistance; experiment: Antibiogram, inhibition diameter (Table D1); conditions: for Results: from diameter, against Dmin Dmax
Description: (§2) The bacterial and antibiogramidentification is carried out by the VITEK 2 system (bioMérieux)

[4] = tested on: SaR1: Meticillin-Resistant Staphylococcus aureus without Associated Resistance; experiment: Antibiogram, MIC by the VITEK 2 system; conditions: SaR1
Description: as §2

[5] = tested on: EcR1: Penicillinase-Producing Escherichia coli without Associated Resistance; experiment: Antibiogram, MIC by the VITEK 2 system; conditions: for MIC: Escherichia coli
Description: (§3) 5.1 EcR1: Penicillinase-Producing Escherichia coli without Associated Resistance The bacterial and antibiogramidentification is carried out by the VITEK 2 system (bioMérieux) and by the disk diffusion technique.

[6] = tested on: EcR1: Penicillinase-Producing Escherichia coli without Associated Resistance; experiment: Antibiogram by the disk diffusion technique; conditions: Table A1
Description: as §3

[7] = tested on: EcR2: Cephalosporinase-Hyperproducing Strain of Escherichia coli; experiment: Antibiogram, MIC by the VITEK 1 system; conditions: for MIC: Escherichia coli, read-out: MIC
Description: (§4) The bacterial and antibiogramidentification is carried out by the VITEK 1 system (bioMérieux) and by the disk diffusion technique

[8] = tested on: EcR2: Cephalosporinase-Hyperproducing Strain of Escherichia coli; experiment: Antibiogram by the disk diffusion technique; conditions: Table B1
Description: as §4

[9] = tested on: EcR3: ESBL-Producing Escherichia coli; experiment: Antibiogram by the disk diffusion technique
Description: The bacterial and antibiogramidentification is carried out by the VITEK 2 system (bioMerieux) and by the disk diffusion technique

[10] = tested on: PaR5: Pseudomonas aeruginosa; experiment: Antibiogram by the disk diffusion technique
Description: as §1

[11] = tested on: PaR2: Pseudomonas aeruginosa
Description: as §1

[12] = tested on: SaR4: Meticillin-Resistant Staphylococcus aureus; experiment: Antibiogram by the disk diffusion technique
Description: as §1

[13] = tested on: ESBL-producing strain of Escherichia coli, having an associated resistance to the aminoglycosides (EcR3); experiment: MIC of the compounds used alone, microdilution in a liquid medium (CLSI); conditions: Escherichia coli, antibiotic alone (second value of cell), read-out: Initial MICs
Text: (§5) The MICs of the antibiotics were previously defined for each strain, by the method of microdilution in a liquid medium (CLSI (Clinical and Laboratory Standards Institute), 2003).

[14] = tested on: Escherichia coli strain ATCC 25922 (wild type); experiment: as above; conditions: Escherichia coli, ATCC25922; antibiotic alone (second value of cell); E. coli ATCC 25922; read-out: Initial MICs
Text: as §5

[15] = tested on: cephalosporinase-hyperproducing strain of Escherichia coli (EcR2); experiment: as above; conditions: Escherichia coli, antibiotic alone (second value of cell), read-out: Initial MICs
Text: as §5

[16] = tested on: penicillinase-producing strain of Escherichia coli without associated resistance (EcR1); experiment: as above; conditions: Escherichia coli, antibiotic alone (second value of cell), read-out: Initial MICs
Text: as §5

Compound: O=C(N[C@H](CO)[C@H](O)c1ccc([N+](=O)[O-])cc1)C(Cl)Cl [Chloramphenicol]
- Diameter [1]: 6 mm
- Results [1]: Resistant
- Results ([2]; Table F1, MIC): Susceptible
- MIC ([2]; Staphylococcus aureus, Table F1, read-out: MIC): 8 µg/mL (≈ 24.8 µM)
- Diameter [3]: 25 mm
- Results [3]: Susceptible

Compound: Pristinamycin
- CA-SFM Interpretation ([4]; Cc CA-SFM 2011): Susceptible
- MIC mg/L ([4]; Table D1): ≦0.5 mg/L
- Results ([4]; Table D1, from MIC): Susceptible
- MIC mg/L ([4]; Table D2): ≦0.5 mg/L
- CA-SFM Interpretation ([1]; Cd CA-SFM 2011): Susceptible
- Diameter [1]: 23 mm
- Results [1]: Susceptible
- diameter in mm [1]: 23 mm
- MIC mg/L ([2]; Table F1): ≦2 mg/L
- Results ([2]; Table F1, MIC): Susceptible
- MIC ([2]; Table F2, MIC): ≦2 mg/L
- CA-SFM Interpretation ([2]; from MIC, Cc CA-SFM 2011): Susceptible
- Diameter [3]: 25 mm
- Results [3]: Susceptible

Compound: CCN[C@@H]1C[C@H](N)[C@@H](O[C@H]2OC(CN)=CC[C@H]2N)[C@H](O)[C@H]1O[C@H]1OC[C@](C)(O)[C@H](NC)[C@H]1O [Netilmicin]
- CA-SFM Interpretation ([5]; EcR1, MIC against Cc CA-SFM 2011): Susceptible
- CLSI Interpretation ([5]; EcR1, MIC against Cc CLSI 2011): Susceptible
- EUCAST Interpretation ([5]; EcR1, MIC against Cc EUCAST 2011): Susceptible
- Results ([5]; EcR1, interpretation of the MIC, Table A1): Susceptible
- MIC ([5]; EcR1, Table A2, read-out: MIC mg/L (diameter in mm)): ≤ 1 mg/L
- MIC ([5]; EcR1, VITEK 2, Table A1, read-out: MIC): ≤ 1 mg/L
- Diameter ([6]; EcR1, disk diffusion): 24 mm
- Results ([6]; EcR1, interpretation of the diameter against Dmin Dmax): Susceptible
- CA-SFM Interpretation ([7]; EcR2, from MIC, Cc CA-SFM 2011): Susceptible
- CLSI Interpretation ([7]; EcR2, from MIC, Cc CLSI 2011): Susceptible
- EUCAST Interpretation ([7]; EcR2, from MIC, Cc EUCAST 2011): Susceptible
- MIC ([7]; EcR2, VITEK 1, Table B1): ≤ 1 µg/mL
- MIC ([7]; EcR2, Table B2, MIC): ≤ 1 µg/mL
- Diameter ([8]; EcR2, disk diffusion): 21
- Results ([8]; EcR2, rows that print a diameter): Susceptible
- CA-SFM Interpretation ([9]; Cd CA-SFM 2011): Resistant
- CLSI Interpretation ([9]; Cd CLSI 2011): Resistant
- EUCAST Interpretation ([9]; Cd EUCAST 2011): Resistant
- Diameter ([9]; Table C1): 10 mm
- Results ([9]; Table C1, against Dmin Dmax): Resistant
- diameter in mm ([9]; Table C2): 10 mm
- Diameter ([10]; PaR5, Table I1): 28 mm
- Results ([10]; PaR5, Table I1, against Dmin-Dmax): Susceptible
- diameter in mm ([10]; disk diffusion inhibition diameter, strain PaR5): 28 mm
- CA-SFM Interpretation ([10]; disk diffusion, PaR5, versus critical diameter CA-SFM 2011): Susceptible
- CLSI Interpretation ([10]; disk diffusion, PaR5, versus critical diameter CLSI 2011): Susceptible
- EUCAST Interpretation ([10]; disk diffusion, PaR5, versus critical diameter EUCAST 2011, for ** antibiotics the disk load differs and the EUCAST interpretation is not applicable): Susceptible
- CA-SFM Interpretation ([11]; Cd CA-SFM 2011): Susceptible
- CLSI Interpretation ([11]; Cd CLSI 2011): Susceptible
- EUCAST Interpretation ([11]; Cd EUCAST 2011): Susceptible
- Diameter ([11]; Table G1): 19 mm
- Results ([11]; Table G1, against Dmin-Dmax): Susceptible
- diameter in mm ([11]; Table G2): 19 mm

Compound: NC[C@H]1O[C@H](O[C@H]2[C@H](O)[C@@H](O[C@H]3O[C@H](CO)[C@@H](O)[C@H](N)[C@H]3O)[C@H](N)C[C@@H]2N)[C@H](O)[C@@H](O)[C@@H]1O [Kanamycin]
- MIC mg/L ([4]; Table D2): ≦4 mg/L
- MIC ([4]; Staphylococcus aureus, Table D1, read-out: MIC): ≤ 4 µg/mL
- Diameter [1]: 6 mm
- diameter in mm [1]: 6 mm
- Diameter ([12]; Table F1): 7
- Diameter ([12]; Table F2, diameters): 7 mm
- Diameter [3]: 20 mm

Compound: C[C@@H](O)[C@H]1C(=O)N2C(C(=O)O)=C(S[C@@H]3CN[C@H](C(=O)Nc4cccc(C(=O)O)c4)C3)[C@H](C)[C@H]12 [Ertapenem]
- MIC [13]: 0.0015 µg/mL
- MIC [14]: 0.015 µg/mL
- MIC [15]: 0.03 µg/mL
- MIC [16]: 0.015 µg/mL
